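Step 1: Grow cells in 96-well plates. Step 2: Expose to compound for 48 hours at 5 concentrations. Step 3: Interpolate endpoints linearly; if unreached, use highest concentration. GI50 marks 50% less growth. At the TGI there is no net growth.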

Here are results for 27 compounds from PubChem BioAssay (NCI).

For the assay, the system named is BT-549 breast. The assay is described as follows: inhibition of tumour cell growth, NCI panel, 48 h.
As to `C/C(=C\c1ccn(-c2ccc(N)c(C(F)(F)F)c2)n1)[C@@H]1C[C@@H]2O[C@]2(C)CCC[C@H](C)[C@H](O)[C@@H](C)C(=O)C(C)(C)[C@@H](O)CC(=O)O1`, the GI50 is 0.0221 µM and the TGI was determined as 31.5 µM. For `CS(=O)(=O)CCNCc1ccc(-c2ccc3ncnc(Nc4ccc(OCc5ccccc5)c(C(F)(F)F)c4)c3c2)o1` the same measures were 8.99 µM and greater than 25 µM. On the same counts, the results for `Nc1ccccc1NC(=O)c1ccc(CSc2nc(N3CCOCC3)c3cccn3n2)cc1` are 1.14 µM and 4.59 µM.

Regarding `CCOC(=O)[C@H](CSSc1ncnc2cc[nH]c12)NC(=O)[C@@H](C)c1ccc2cc(OC)ccc2c1`, the GI50 was 0.916 µM and the TGI was greater than 100 µM. On the same counts, the results for `COc1ccc(-c2cc(-c3ccc(Nc4nc(Nc5ccc(Cl)cc5)nc(Nc5ccc(Cl)cc5)n4)cc3)no2)cc1` are 17.2 µM and 72 µM. On the same counts, the results for `CCc1ccc(C2=C/C(=C/c3ccc(Cl)cc3)C(=O)N2CCc2ccc(S(N)(=O)=O)cc2)cc1` are 1.79 µM and 3.42 µM.

Turning to `O=c1oc2ccc(Cl)cc2c(=O)n1-c1ccc(Cl)cc1F`, the GI50 is 0.483 µM and the TGI worked out at 2.44 µM. On the same counts, the results for `CS(=O)(=O)c1ccc(N/N=C/c2c(-c3ccc(S(C)(=O)=O)cc3)[nH]c3ccc(F)cc23)cc1` are 1.44 µM and greater than 50 µM.

Take `O=C1C=C(Nc2ccccc2)c2ncccc2C1=O`: the GI50 was 1.28 µM and the TGI is 2.64 µM.

Turning to `CCCCCCCCCCCCCOC(=O)c1c(C)[nH]c(/C=C2\N=C(c3ccc[nH]3)C=C2OC)c1C`, the GI50 was 0.237 µM and the TGI turned out to be 36.7 µM.

With `COc1ccc(-c2coc3ncnc(N)c23)cc1`, the GI50 is greater than 25 µM and the TGI was greater than 25 µM.

For `Nc1ncc(-c2cnn(C3CCNCC3)c2)cc1-c1nc2ccccc2o1`, the GI50 was 2.44 µM and the TGI stood at 10.2 µM.

On to `COc1ccc(C(=O)/C=C/c2cc3ccccc3[nH]c2=O)cc1`, for which the GI50 was 20.2 µM and the TGI is greater than 42.9 µM. For the compound `CC(=O)O[C@H](C[C@H](C(C)C)N(C)C(=O)[C@@H](NC(=O)[C@H]1CCCCN1C)C(C)C)c1nc(C(=O)N[C@@H](Cc2ccccc2)C[C@H](C)C(=O)O)c(C)s1`, the GI50 was less than 0.0025 µM and the TGI worked out at 0.0627 µM. Take `COc1cc2c(c(OC)c1OC)-c1ccc(OC)c(=O)cc1[C@@H](NC(=O)CCl)CC2`: the GI50 is less than 0.01 µM. Take `CCN(Cc1ccc(F)cc1)c1ccc(CO)c(Cl)c1`: the GI50 was 9.27 µM and the TGI is 29.7 µM.

For the compound `CCC1CCc2nc3sc(C(=O)Nc4ccccc4F)c(N)c3cc2C1` (configuration not stated), the GI50 was greater than 100 µM and the TGI was greater than 100 µM. For the compound `CCCCCCN(CCCCCC)C(=N)c1ccnc2ccccc12`, the GI50 is 13.9 µM and the TGI came to 27.3 µM.

As for `COc1cc2c(c(OC)c1OC)-c1ccc([O-])c(=O)cc1[C@@H](NC(C)=O)CC2.COc1cc2c(c(OC)c1OC)-c1ccc([O-])c(=O)cc1[C@@H](NC(C)=O)CC2.[Cu+2]`, the GI50 is 2.56 µM and the TGI is greater than 100 µM. For `O=C1C(=O)c2cc([N+](=O)[O-])ccc2-c2ccccc21` the same measures were 1.83 µM and 3.22 µM. For `Cc1ccc(-c2csc(N(C(=O)N3CCN(c4cc5c(cc4F)c(=O)c(C(=O)O)cn5C4CC4)CC3)c3ccccc3)n2)cc1`, the GI50 is 0.32 µM and the TGI is 3.31 µM. On the same counts, the results for `COc1cccc(-c2nn(-c3ccccc3)cc2-c2ccnc(NCCNS(=O)(=O)c3ccc(C(F)(F)F)cc3)c2)c1` are 1.95 µM and 4.56 µM. Consider `COc1ccc(C(=S)c2cc(OC)c(OC)c(OC)c2)cc1OC(=O)CCl`, for which the GI50 is less than 0.0175 µM and the TGI amounted to 0.922 µM. For `O=C1C2CC3C(CC2C(=O)[N]1[Sn]([c]1ccccc1)([c]1ccccc1)[c]1ccccc1)C1(Cl)C(Cl)=C(Cl)C3(Cl)C1(Cl)Cl` (configuration not stated) the same measures were 0.185 µM and 0.369 µM. For `CC(C)(Cl)CCC1=C(Cl)C(=O)c2ccccc2C1=O` the same measures were 2.35 µM and 8.78 µM. Turning to `Nc1nc(N)c2nc(CNc3ccc(C(=O)CC(CCC(=O)O)C(=O)O)cc3)cnc2n1` (configuration not stated), the GI50 was 0.357 µM. For the compound `CN1CCN(C(=O)c2ccc(NC(=O)Nc3ccc(N(C)c4ccnc(Nc5ccc(CS(C)(=O)=O)cc5)n4)cc3)cc2)CC1`, the GI50 was 9.05 µM and the TGI was greater than 25 µM.
